{
  "source": "patent US20190030036A1",
  "about": "“PHOSPHODIESTERASE INHIBITOR TREATMENT” (Cyrano Therapeutics, Inc., priority 2013, published 2019)",
  "key": {"patients with hyposmia": {"test_system": "patients with hyposmia", "experiment": "Side effects of oral theophylline (Example 1)", "assay_type": "in vivo, human", "conditions": "oral theophylline 200-800 mg daily in divided doses in middle of meals", "excerpt": "Patients were required to take the drug in divided doses in middle of meals (breakfast and lunch)."}, "[1]": {"experiment": "Plasma theophylline level, intranasal theophylline pilot study (Example 7)", "assay_type": "in vivo, human", "conditions": "intranasal theophylline 20 μg per naris once a day; eight patients", "from_the_text": "Blood was obtained by venipuncture to collect plasma and red blood cells used to measure trace metals (Cu, Zn, Mg), various enzymes, theophylline and other chemical moieties."}, "Body weight (Example 8)": {"experiment": "Body weight (Example 8)", "assay_type": "in vivo, human"}, "asthmatic patients": {"test_system": "asthmatic patients", "experiment": "sGaw after inhaled dry powder in asthmatic patients (Examples 5, 6)", "protocol": "(§1) To test this theory, asthmatic patients are enrolled in a dose escalating single blind study. On arrival to the clinic, subjects are allowed to rest for 20 minutes before baseline measurements of FEV1 (six recordings) and sGaw (five recordings) are made. Subjects receive a dry powder dispenser loaded with a dose of 2 mg theophylline or a dry powder carrier. […] After each inhalation, measurements of sGaw are made at 1, 3, 5, 10, 15, 20, 25, and 30 minutes.\nOn completion of the last recording, subjects inhale a 200 μg dose of salbutamol from a metered inhaler and a further measurement of sGaw is made after 15 minutes. Subjects are also monitored for coughing and are questioned about the taste of the drug.\nas §1, with “Asthmatic patients” for “To test this theory, asthmatic patients”, “of 1” for “of 2”, “mg IBMX formulated as a dry powder” for “mg theophylline”\nOn completion of the last recording, subjects inhale a 200 μg dose of salbutamol from a metered inhaler and a further measurement of sGaw made after 15 minutes. Subjects are also be monitored for coughing and are questioned about the taste of the drug."}, "hyposmic patients": {"test_system": "hyposmic patients", "experiment": "Smell acuity in open label trial of inhalable/nasal PDE inhibitor (Examples 3, 4)", "assay_type": "in vivo, human", "conditions": "nasal theophylline, not more than 500 μg, 1 month", "protocol": "Hyposmic patients for whom the etiology of smell loss is not associated with head injury or allergic rhinitis are enrolled in an open label trial of inhalable theophylline. Patients are started at an initial dose of not more than 500 μg formulated as a liquid spray or dry powder to be delivered as a metered dose. Initially only local patients are enrolled so that quicker dose titration is achieved. Groups of 5 patients are started on not more than 500 μg of theophylline and continued for 1 month.\nPatients are tested for improvement in smell acuity using the standard forced choice technique using four odors as described in Example 1. Additionally, subjective measurements of smell function are obtained using a scale from 0-100 as described in Example 1. Blood samples are also drawn to ascertain blood theophylline level to gauge its relationship to the expected recovery of smell.\nHyposmic patients for whom the etiology of smell loss is not associated with head injury or allergic rhinitis are enrolled in an open label trial of an inhalable PDE1 inhibitor. […]"}, "[2]": {"test_system": "patients with hyposmia and hypogeusia", "method": "Subjective changes in smell and taste function under each study condition were measured by questionnaire before measurements of smell or taste function. Responses were graded on a scale from 0 to 100, with 0 reflecting no subjective response in overall sensory function; 100, return to normal sensory function; and values between 0 and 100 intermediate responses. Overall sensory function was defined as the ability to smell all odors and identify all tastants, although response intensity varied.\nIn this prior trial, oral theophylline was administered daily in 2 divided doses (at breakfast and lunch) of 200, 400, 600, or 800 mg for 2 to 12 months of treatment. Treatment was divided into 2- to 4-month periods, at which time patients returned to The Clinic for measurements of subjective sensory responses, olfactometry, gustometry, serum theophylline level, and body weight.\nEach patient delivered the theophylline dose in each naris once daily throughout the study. Patients underwent evaluation 1, 2, and 4 weeks during drug use with the same measurements used for the oral study.\nValues for the oral trial were taken from the last measurements made before discontinuation of oral drug treatment and before initiation of the intranasal trial. […] Values for the intranasal pilot study were taken from measurements obtained after completion of 4 weeks of intranasal treatment."}, "[3]": {"conditions": "inhaled dry powder 2 mg theophylline"}},
  "note": "Read-outs that look alike come from different tables or passages of the source.",
  "data": [
    {"smiles": "Cn1c(=O)c2[nH]cnc2n(C)c1=O", "note": "[theophylline]", "values": [
      {"measurement": "Side effects", "setting": "patients with hyposmia", "result": "generally minimal"},
      {"measurement": "plasma theophylline levels", "setting": "[1]", "result": "zero"},
      {"measurement": "mean (SEM) weight increase from pretreatment values", "setting": "Body weight (Example 8); intranasal theophylline 20 μg/d in each naris", "result": "2.5 (0.5) kg"},
      {"measurement": "mean (SEM) weight increase from pretreatment values", "setting": "Body weight (Example 8); oral theophylline 200 to 800 mg/d", "result": "1.5 (0.4) kg"},
      {"measurement": "sGaw above the baseline measurement", "setting": "asthmatic patients; after 30 minutes, inhaled dry powder 2 mg theophylline", "result": 20, "unit": "%"},
      {"measurement": "taste and coughing", "setting": "asthmatic patients; dry powder formulation of theophylline vs nebulized liquid", "result": "without the unpleasant taste or the induction of coughing"},
      {"measurement": "increase in sGaw relative to 200 μg inhaled salbutamol", "setting": "asthmatic patients; [3]", "result": "comparable"},
      {"measurement": "time until sGaw baseline is reached", "setting": "asthmatic patients; [3]", "result": 1, "unit": "h"},
      {"measurement": "recovery of smell acuity compared with oral administration", "setting": "hyposmic patients", "result": "at least an equivalent recovery of smell acuity"},
      {"measurement": "earliest time improvement was measured", "setting": "[2]; intranasal theophylline", "result": 1, "unit": "week"},
      {"measurement": "improvement in taste and smell functions compared with oral treatment", "setting": "[2]; intranasal theophylline 20 μg/d in each naris, 4 weeks", "result": 2, "unit": "fold"},
      {"measurement": "patients reporting overall improvement in taste and smell functions", "setting": "[2]; intranasal theophylline 20 μg/d in each naris, 4 weeks, 10 patients", "result": 8, "unit": "patients"},
      {"measurement": "earliest time improvement was measured", "setting": "[2]; oral theophylline", "result": 2, "unit": "months"},
      {"measurement": "patients reporting overall increased taste and smell function", "setting": "[2]; oral theophylline 200 to 800 mg/d, 2 to 12 months, 10 patients", "result": 6, "unit": "patients"}
    ]}
  ]
}
